Measurements: patent US6472348B1, “Pyridone derivatives and herbicides” (Kumiai Chemical Industry Co., Ltd., priority 1996, dated 2002)

Key:
[1] = system: wheat (Tr); experiment: Test Example 5: crop plant selectivity by upland field soil treatment (wheat), phytotoxicity; type: in vivo; parameters: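 grade of crop injury; 5 = at least 90%; 4 = 70 to 90%; 3 = 50 to 70%; 2 = 30 to 50%; 1 = 10 to 30%; 0 = under 10%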; details: 21st day after application
Method in brief: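 A greenhouse pot test in which wheat and weeds share sand-filled pots; after the soil application, damage is graded against set standards three weeks later.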

[2] = system: rice flatsedge (Ci); experiment: Test Example 3: herbicidal effects by upland field foliage treatment; type: in vivo; parameters: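 grade of growth control; 5 = at least 90%; 4 = 70 to 90%; 3 = 50 to 70%; 2 = 30 to 50%; 1 = 10 to 30%; 0 = under 10%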
Method in brief: (§1)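 Two-week-old greenhouse seedlings, raised in sand-filled pots (120 cm^2) with seed covered by soil, receive a foliar application. Effects are then evaluated by standard grades 14 days later, plants remaining in the greenhouse meanwhile.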

[3] = system: slender amaranth (Am); experiment: as above; type: in vivo; parameters: scale not given here
Method in brief: as §1

[4] = system: common lambsquarters (Ch); experiment: as above; type: in vivo; parameters: scale not given here
Method in brief: as §1

[5] = system: Diaitaria ciliaris (Di); experiment: as above; type: in vivo; parameters: scale not given here
Method in brief: as §1

[6] = system: slender amaranth (Am); experiment: Test Example 6: crop plant selectivity by upland field soil treatment (soybean), herbicidal effects; type: in vivo; parameters: scale not given here; details: 21st day after application
Method in brief: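 Greenhouse pot test with soil-applied compound after sowing soybean and weeds in sand; effects graded on day 21 after application.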

[7] = system: corn (Ze); experiment: Test Example 11: crop plant selectivity by upland field foliage treatment (corn), phytotoxicity; details: dose 1.6 g ai/10a
Method in brief: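 Corn and the weed species were sown together in sand-filled pots and grown in a greenhouse for 2 weeks before foliar treatment. Herbicidal effect was scored on day 14 after treatment against a graded standard scale, with corn phytotoxicity scored alongside.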

[8] = system: slender amaranth (Am); experiment: Test Example 9: crop plant selectivity by upland field foliage treatment (wheat), herbicidal effects; type: in vivo; parameters: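 grade of growth control; 5 = at least 90%; 4 = 70 to 90%; 3 = 50 to 70%; 2 = 30 to 50%; 1 = 10 to 30%; 0 = under 10%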; details: dose 1.6 g ai/10a, 14th day after treatment
Method in brief: (§2)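 Read-out: weed control and wheat injury, rated by a defined scoring standard 14 days after foliar application.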

[9] = system: common lambsquarters (Ch); experiment: as above; type: in vivo; parameters: scale not given here; details: dose 1.6 g ai/10a, 14th day after treatment
Method in brief: as §2

[10] = system: China jute (Ab); experiment: as above; type: in vivo; parameters: scale not given here; details: dose 1.6 g ai/10a, 14th day after treatment
Method in brief: as §2

[11] = system: pale smartweed (Po); experiment: as above; type: in vivo; parameters: scale not given here; details: dose 1.6 g ai/10a, 14th day after treatment
Method in brief: as §2

[12] = 100 g of the active ingredient per 10 ares, evaluated on the 14th day after treatment
[13] = upland field foliage treatment, 14th day after treatment
[14] = 100 g active ingredient per 10 ares, evaluated 14th day after treatment

C=CCOc1cc(-c2ccc(C(F)(F)F)n(C)c2=O)c(F)cc1Cl [1-16]
Phytotoxicity Tr ([1]; dose 1.6 g ai/10a): 1
Phytotoxicity Tr ([1]; dose 6.3 g ai/10a): 1
Herbicidal effects Ci [2, 12]: 5
Herbicidal effects Am [3, 12]: 5
Herbicidal effects Ch [4, 12]: 5
Herbicidal effects Di [5, 12]: 5
Herbicidal effects Am ([6]; dose 1.6 g ai/10a): 5
Phytotoxicity Ze [7, 13]: 2
Herbicidal effects Am [8]: 5
Herbicidal effects Ch [9]: 5
Herbicidal effects Ab [10]: 5
Herbicidal effects Po [11]: 5

C#CCOc1cc(-c2ccc(C(F)(F)F)n(C)c2=O)c(Cl)cc1Cl [1-30]
Phytotoxicity Tr ([1]; dose 1.6 g ai/10a): 2
Herbicidal effects Ci [2, 12]: 5
Herbicidal effects Am [3, 12]: 5
Herbicidal effects Ch [4, 12]: 5
Herbicidal effects Di [5, 12]: 5
Herbicidal effects Am ([6]; dose 1.6 g ai/10a): 5
Phytotoxicity Ze [7, 13]: 2
Herbicidal effects Am [8]: 5
Herbicidal effects Ch [9]: 5
Herbicidal effects Ab [10]: 5
Herbicidal effects Po [11]: 5

CCOC(=O)c1cc(-c2ccc(C(F)(F)F)n(C)c2=O)c(F)cc1Cl [1-65]
Phytotoxicity Tr ([1]; dose 1.6 g ai/10a): 0
Phytotoxicity Tr ([1]; dose 6.3 g ai/10a): 1
Herbicidal effects Ci [2, 12]: 5
Herbicidal effects Am [3, 12]: 5
Herbicidal effects Ch [4, 12]: 5
Herbicidal effects Di [5, 12]: 5
Herbicidal effects Am ([6]; dose 1.6 g ai/10a): 5
Herbicidal effects Am ([6]; dose 6.3 g ai/10a): 5
Phytotoxicity Ze [7, 13]: 2
Herbicidal effects Am [8]: 5
Herbicidal effects Ch [9]: 5
Herbicidal effects Ab [10]: 5
Herbicidal effects Po [11]: 5

Cn1c(C(F)(F)F)ccc(-c2cc(OCCCl)c(Cl)cc2F)c1=O [1-171]
Phytotoxicity Tr ([1]; dose 6.3 g ai/10a): 1
Herbicidal effects Ci [2, 12]: 5
Herbicidal effects Am [3, 12]: 5
Herbicidal effects Ch [4, 12]: 5
Herbicidal effects Di [5, 12]: 5
Herbicidal effects Am ([6]; dose 6.3 g ai/10a): 5
Phytotoxicity Ze [7, 13]: 1
Herbicidal effects Am [8]: 5
Herbicidal effects Ch [9]: 5
Herbicidal effects Ab [10]: 5
Herbicidal effects Po [11]: 5

CCOCOc1cc(-c2ccc(C(F)(F)F)n(C)c2=O)c(F)cc1Cl [1-181]
Phytotoxicity Tr ([1]; dose 6.3 g ai/10a): 1
Herbicidal effects Ci [2, 12]: 5
Herbicidal effects Am [3, 12]: 5
Herbicidal effects Ch [4, 12]: 5
Herbicidal effects Di [5, 12]: 5
Herbicidal effects Am ([6]; dose 6.3 g ai/10a): 5
Phytotoxicity Ze [7, 13]: 2
Herbicidal effects Am [8]: 5
Herbicidal effects Ch [9]: 5
Herbicidal effects Ab [10]: 5
Herbicidal effects Po [11]: 5

C#CC(C)Oc1cc(Cl)cc(F)c1-c1ccc(C(F)(F)F)n(C)c1=O (stereo not shown) [1′-5]
Phytotoxicity Tr ([1]; dose 1.6 g ai/10a): 1
Phytotoxicity Tr ([1]; dose 6.3 g ai/10a): 1
Herbicidal effects Ci [2, 14]: 5
Herbicidal effects Am [3, 14]: 5
Herbicidal effects Ch [4, 14]: 5
Herbicidal effects Di [5, 14]: 5
Herbicidal effects Am ([6]; dose 1.6 g ai/10a): 5
Herbicidal effects Am ([6]; dose 6.3 g ai/10a): 5
Phytotoxicity Ze [7, 13]: 1
Herbicidal effects Am [8]: 5
Herbicidal effects Ch [9]: 5
Herbicidal effects Ab [10]: 5
Herbicidal effects Po [11]: 5

C=CC(C)Oc1cc(-c2ccc(C(F)(F)F)n(C)c2=O)c(F)cc1Cl (stereo not shown) [Compound 1-182]
Phytotoxicity Tr ([1]; dose 6.3 g ai/10a): 1
Herbicidal effects Ci [2, 12]: 5
Herbicidal effects Am [3, 12]: 5
Herbicidal effects Ch [4, 12]: 5
Herbicidal effects Di [5, 12]: 5
Herbicidal effects Am ([6]; dose 6.3 g ai/10a): 5
Phytotoxicity Ze [7, 13]: 1
Herbicidal effects Am [8]: 5
Herbicidal effects Ch [9]: 5
Herbicidal effects Ab [10]: 5
Herbicidal effects Po [11]: 5

CCON=Cc1cc(-c2ccc(C(F)(F)F)n(C)c2=O)c(F)cc1Cl [Compound 1-187]
Phytotoxicity Tr ([1]; dose 6.3 g ai/10a): 1
Herbicidal effects Ci [2, 14]: 5
Herbicidal effects Am [3, 14]: 5
Herbicidal effects Ch [4, 14]: 5
Herbicidal effects Di [5, 14]: 5
Herbicidal effects Am ([6]; dose 6.3 g ai/10a): 5
Phytotoxicity Ze [7, 13]: 2
Herbicidal effects Am [8]: 5
Herbicidal effects Ch [9]: 5
Herbicidal effects Ab [10]: 5
Herbicidal effects Po [11]: 5

CCOC(=O)CON=Cc1cc(-c2ccc(C(F)(F)F)n(C)c2=O)c(F)cc1Cl [Compound 1-191]
Phytotoxicity Tr ([1]; dose 6.3 g ai/10a): 1
Herbicidal effects Ci [2, 14]: 5
Herbicidal effects Am [3, 14]: 5
Herbicidal effects Ch [4, 14]: 5
Herbicidal effects Di [5, 14]: 5
Herbicidal effects Am ([6]; dose 6.3 g ai/10a): 5
Phytotoxicity Ze [7, 13]: 2
Herbicidal effects Am [8]: 5
Herbicidal effects Ch [9]: 5
Herbicidal effects Ab [10]: 5
Herbicidal effects Po [11]: 5

C=CC(O)c1cc(-c2ccc(C(F)(F)F)n(C)c2=O)c(F)cc1Cl (stereo not shown) [Compound 1-197]
Phytotoxicity Tr ([1]; dose 6.3 g ai/10a): 1
Herbicidal effects Ci [2, 14]: 5
Herbicidal effects Am [3, 14]: 5
Herbicidal effects Ch [4, 14]: 5
Herbicidal effects Di [5, 14]: 5
Herbicidal effects Am ([6]; dose 6.3 g ai/10a): 5
Phytotoxicity Ze [7, 13]: 2
Herbicidal effects Am [8]: 5
Herbicidal effects Ch [9]: 5
Herbicidal effects Ab [10]: 5
Herbicidal effects Po [11]: 5

CSCOc1cc(-c2ccc(C(F)(F)F)n(C)c2=O)c(F)cc1Cl [Compound 1-208]
Phytotoxicity Tr ([1]; dose 6.3 g ai/10a): 1
Herbicidal effects Ci [2, 14]: 5
Herbicidal effects Am [3, 14]: 5
Herbicidal effects Ch [4, 14]: 5
Herbicidal effects Di [5, 14]: 5
Herbicidal effects Am ([6]; dose 6.3 g ai/10a): 5
Phytotoxicity Ze [7, 13]: 2
Herbicidal effects Am [8]: 5
Herbicidal effects Ch [9]: 5
Herbicidal effects Ab [10]: 5
Herbicidal effects Po [11]: 5

C#CCN1C(=O)COc2cc(Cl)c(-c3ccc(C(F)(F)F)n(C)c3=O)cc21 [Compound 2-25]
Phytotoxicity Tr ([1]; dose 1.6 g ai/10a): 1
Phytotoxicity Tr ([1]; dose 6.3 g ai/10a): 2
Herbicidal effects Ci [2, 14]: 5
Herbicidal effects Am [3, 14]: 5
Herbicidal effects Ch [4, 14]: 5
Herbicidal effects Di [5, 14]: 5
Herbicidal effects Am ([6]; dose 1.6 g ai/10a): 5
Herbicidal effects Am ([6]; dose 6.3 g ai/10a): 5
Phytotoxicity Ze [7, 13]: 2
Herbicidal effects Am [8]: 5
Herbicidal effects Ch [9]: 5
Herbicidal effects Ab [10]: 5
Herbicidal effects Po [11]: 5

C=CCN1C(=O)COc2cc(Cl)c(-c3ccc(C(F)(F)F)n(C)c3=O)cc21 [Compound 2-26]
Phytotoxicity Tr ([1]; dose 6.3 g ai/10a): 1
Herbicidal effects Ci [2, 14]: 5
Herbicidal effects Am [3, 14]: 5
Herbicidal effects Ch [4, 14]: 5
Herbicidal effects Di [5, 14]: 5
Herbicidal effects Am ([6]; dose 6.3 g ai/10a): 5
Phytotoxicity Ze [7, 13]: 2
Herbicidal effects Am [8]: 5
Herbicidal effects Ch [9]: 5
Herbicidal effects Ab [10]: 5
Herbicidal effects Po [11]: 5

CCCc1cc2c(-c3ccc(C(F)(F)F)n(C)c3=O)c(F)cc(Cl)c2o1 [Compound 4-3]
Phytotoxicity Tr ([1]; dose 6.3 g ai/10a): 2
Herbicidal effects Ci [2, 14]: 5
Herbicidal effects Am [3, 14]: 5
Herbicidal effects Ch [4, 14]: 5
Herbicidal effects Di [5, 14]: 5
Herbicidal effects Am ([6]; dose 6.3 g ai/10a): 5
Phytotoxicity Ze [7, 13]: 2
Herbicidal effects Am [8]: 5
Herbicidal effects Ch [9]: 5
Herbicidal effects Ab [10]: 5
Herbicidal effects Po [11]: 5

CCc1cc2c(Cl)cc(F)c(-c3ccc(C(F)(F)F)n(C)c3=O)c2o1 [Compound 5-2]
Phytotoxicity Tr ([1]; dose 6.3 g ai/10a): 1
Herbicidal effects Ci [2, 14]: 5
Herbicidal effects Am [3, 14]: 5
Herbicidal effects Ch [4, 14]: 5
Herbicidal effects Di [5, 14]: 5
Herbicidal effects Am ([6]; dose 6.3 g ai/10a): 5
Phytotoxicity Ze ([7]; corn, foliage treatment, evaluated on 14th day after treatment, index per Table 47): 2
Herbicidal effects Am [8]: 5
Herbicidal effects Ch [9]: 5
Herbicidal effects Ab [10]: 5
Herbicidal effects Po [11]: 5

CCCC(=O)c1cc(-c2ccc(C(F)(F)F)n(C)c2=O)c(F)cc1Cl [Compound No. 1-194, 3-[4-chloro-2-fluoro-5-(1-oxobutyl)phenyl]-1-methyl-6-trifluoromethyl-2(1H)-pyridone]
Phytotoxicity Tr ([1]; dose 6.3 g ai/10a): 1
Herbicidal effects Ci [2, 14]: 5
Herbicidal effects Am [3, 14]: 5
Herbicidal effects Ch [4, 14]: 5
Herbicidal effects Di [5, 14]: 5
Herbicidal effects Am ([6]; dose 6.3 g ai/10a): 5
Phytotoxicity Ze [7, 13]: 1
Herbicidal effects Am [8]: 5
Herbicidal effects Ch [9]: 5
Herbicidal effects Ab [10]: 5
Herbicidal effects Po [11]: 5

Cn1c(C(F)(F)F)ccc(-c2c(F)cc(Cl)c3oc(CO)cc23)c1=O [Compound No. 4-5, 3-(7-chloro-5-fluoro-2-hydroxymethylbenzofuran-4-yl)-1-methyl-6-trifluoromethyl-2-(1H)-pyridone]
Phytotoxicity Tr ([1]; dose 6.3 g ai/10a): 1
Herbicidal effects Ci [2, 14]: 5
Herbicidal effects Am [3, 14]: 5
Herbicidal effects Ch [4, 14]: 5
Herbicidal effects Di [5, 14]: 5
Herbicidal effects Am ([6]; dose 6.3 g ai/10a): 5
Phytotoxicity Ze [7, 13]: 1
Herbicidal effects Am [8]: 5
Herbicidal effects Ch [9]: 5
Herbicidal effects Ab [10]: 5
Herbicidal effects Po [11]: 5

Cn1c(C(F)(F)F)ccc(-c2c(F)cc(Cl)c3occc23)c1=O [Compound No. 4-28, 3-(7-chloro-5-fluorobenzofuran-4-yl)-1-methyl-6-trifluoromethyl-2-(1H)-pyridone]
Phytotoxicity Tr ([1]; dose 6.3 g ai/10a): 2
Herbicidal effects Ci [2, 14]: 5
Herbicidal effects Am [3, 14]: 5
Herbicidal effects Ch [4, 14]: 5
Herbicidal effects Di [5, 14]: 5
Herbicidal effects Am ([6]; dose 1.6 g ai/10a): 5
Phytotoxicity Ze [7, 13]: 2
Herbicidal effects Am [8]: 5
Herbicidal effects Ch [9]: 5
Herbicidal effects Ab [10]: 5
Herbicidal effects Po [11]: 5
